Measured values reported in article PMC8710044 (Biochemical pharmacology, 2021).

T1: CYP2C8 (Homo sapiens, UniProt P10632)
T1 sequence (P10632 1-490): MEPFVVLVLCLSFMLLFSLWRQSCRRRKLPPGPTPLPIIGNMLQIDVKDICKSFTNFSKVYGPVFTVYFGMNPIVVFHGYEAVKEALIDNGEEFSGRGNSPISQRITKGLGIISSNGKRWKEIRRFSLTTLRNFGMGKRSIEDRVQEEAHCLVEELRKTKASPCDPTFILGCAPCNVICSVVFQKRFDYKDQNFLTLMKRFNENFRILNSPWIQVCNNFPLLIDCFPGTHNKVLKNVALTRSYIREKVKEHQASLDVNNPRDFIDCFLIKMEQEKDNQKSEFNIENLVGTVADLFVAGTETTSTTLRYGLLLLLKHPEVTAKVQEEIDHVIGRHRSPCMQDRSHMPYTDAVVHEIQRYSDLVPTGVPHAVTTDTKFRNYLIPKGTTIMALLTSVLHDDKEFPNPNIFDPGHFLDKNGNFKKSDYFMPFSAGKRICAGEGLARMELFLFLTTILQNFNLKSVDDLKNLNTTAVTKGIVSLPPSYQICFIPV

B1: CYP2C8 (Homo sapiens) (protein)
chain: T1 sequence (P10632 1-490)
B2: CYP2C9 (Homo sapiens) (protein)
chain: MDSLVVLVLCLSCLLLLSLWRQSSGRGKLPPGPTPLPVIGNILQIGIKDISKSLTNLSKVYGPVFTLYFGLKPIVVLHGYEAVKEALIDLGEEFSGRGIFPLAERANRGFGIVFSNGKKWKEIRRFSLMTLRNFGMGKRSIEDRVQEEARCLVEELRKTKASPCDPTFILGCAPCNVICSIIFHKRFDYKDQQFLNLMEKLNENIKILSSPWIQICNNFSPIIDYFPGTHNKLLKNVAFMKSYILEKVKEHQESMDMNNPQDFIDCFLMKMEKEKHNQPSEFTIESLENTAVDLFGAGTETTSTTLRYALLLLLKHPEVTAKVQEEIERVIGRNRSPCMQDRSHMPYTDAVVHEVQRYIDLLPTSLPHAVTCDIKFRNYLIPKGTTILISLTSVLHDNKEFPNPEMFDPHHFLDEGGNFKKSKYFMPFSAGKRICVGEALAGMELFLFLTSILQNFNLKSLVDPKNLDTTPVVNGFASVPPFYQLCFIPV

Columns and labels:
CYP2C19 = CYP2C19 (Homo sapiens, UniProt P33261); test: Relative CYP contribution to hepatic bioactivation and detoxification, CYP2C19; type: in vitro ADME; settings: for Bioactivation Percent: CYP2C19 contribution to total CLbioact of the NSAID; for Detoxification Percent: CYP2C19 contribution to total CLdetox of the NSAID
CYP2C9 = CYP2C9 (Homo sapiens, UniProt P11712); test: Relative CYP contribution to hepatic bioactivation and detoxification, CYP2C9; type: in vitro ADME; settings: for Bioactivation Percent: CYP2C9 contribution to total CLbioact of the NSAID; for Detoxification Percent: CYP2C9 contribution to total CLdetox of the NSAID
CYP3A4 = CYP3A4 (Homo sapiens, UniProt P08684); test: Relative CYP contribution to hepatic bioactivation and detoxification, CYP3A4; type: in vitro ADME; settings: for Bioactivation Percent: CYP3A4 contribution to total CLbioact of the NSAID; for Detoxification Percent: CYP3A4 contribution to total CLdetox of the NSAID
CYP2C8 = biological target: T1, CYP2C8; test: Relative CYP contribution to hepatic bioactivation and detoxification, CYP2C8; type: in vitro ADME; settings: for Bioactivation Percent: CYP2C8 contribution to total CLbioact of the NSAID; for Detoxification Percent: CYP2C8 contribution to total CLdetox of the NSAID
[1] = substrate: Cc1cccc(Nc2ccccc2C(=O)O)c1C; test: Steady-state bioactivation kinetics; type: in vitro ADME, human; settings: other: CYP2C8, path 1, 2, 95% CI in parentheses, pH 7.4
[2] = substrate: O=C(O)COC(=O)Cc1ccccc1Nc1c(Cl)cccc1Cl; test: Steady-state bioactivation kinetics; type: in vitro ADME, human; settings: other: CYP2C8, 95% CI in parentheses, pH 7.4
[3] = substrate: Cc1cccc(Nc2ccccc2C(=O)O)c1C; test: Steady-state kinetics of overall NSAID metabolism; type: in vitro ADME, human; settings: other: overall metabolism (depletion) by CYP2C8; 95% CI in parentheses; pH 7.4
[4] = substrate: O=C(O)COC(=O)Cc1ccccc1Nc1c(Cl)cccc1Cl; test: Steady-state kinetics of overall NSAID metabolism; type: in vitro ADME, human; settings: other: overall metabolism (depletion) by CYP2C8; 95% CI in parentheses; pH 7.4
[5] = substrate: Cc1cccc(Nc2ccccc2C(=O)O)c1C; test: cells, lysate or membranes named; settings: other: CYP2C9, path 1, 2, 95% CI in parentheses, pH 7.4
[6] = substrate: Cc1ccc(Nc2c(F)cccc2Cl)c(CC(=O)O)c1; test: cells, lysate or membranes named; settings: other: CYP2C9; adduct Unk; 95% CI in parentheses; pH 7.4
[7] = substrate: Cc1c(Cl)cccc1Nc1ccccc1C(=O)O; test: cells, lysate or membranes named; settings: other: CYP2C9, path 1, 2, 95% CI in parentheses, pH 7.4
[8] = substrate: O=C(O)COC(=O)Cc1ccccc1Nc1c(Cl)cccc1Cl; test: cells, lysate or membranes named; settings: other: CYP2C9, 95% CI in parentheses, pH 7.4
[9] = substrate: Cc1ccc(Cl)c(Nc2ccccc2C(=O)O)c1Cl; test: cells, lysate or membranes named; settings: other: CYP2C9; metabolite M9, path 4; 95% CI in parentheses; pH 7.4

Sequence of CYP3A4 (P08684 whole entry): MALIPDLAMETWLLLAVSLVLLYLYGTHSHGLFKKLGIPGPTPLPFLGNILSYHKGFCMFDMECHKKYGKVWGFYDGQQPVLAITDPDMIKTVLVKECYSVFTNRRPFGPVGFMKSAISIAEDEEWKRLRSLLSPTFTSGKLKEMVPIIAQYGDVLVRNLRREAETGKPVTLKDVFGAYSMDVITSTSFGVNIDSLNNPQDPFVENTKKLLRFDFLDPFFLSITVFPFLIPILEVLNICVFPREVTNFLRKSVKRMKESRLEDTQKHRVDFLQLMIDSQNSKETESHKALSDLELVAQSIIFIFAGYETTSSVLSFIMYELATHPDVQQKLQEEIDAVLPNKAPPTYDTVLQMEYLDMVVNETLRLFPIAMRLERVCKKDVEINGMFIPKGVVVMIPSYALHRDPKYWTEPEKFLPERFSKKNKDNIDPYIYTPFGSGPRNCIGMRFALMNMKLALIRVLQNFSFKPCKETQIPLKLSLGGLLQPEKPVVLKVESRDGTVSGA
Sequence of CYP2C19 (P33261 whole entry): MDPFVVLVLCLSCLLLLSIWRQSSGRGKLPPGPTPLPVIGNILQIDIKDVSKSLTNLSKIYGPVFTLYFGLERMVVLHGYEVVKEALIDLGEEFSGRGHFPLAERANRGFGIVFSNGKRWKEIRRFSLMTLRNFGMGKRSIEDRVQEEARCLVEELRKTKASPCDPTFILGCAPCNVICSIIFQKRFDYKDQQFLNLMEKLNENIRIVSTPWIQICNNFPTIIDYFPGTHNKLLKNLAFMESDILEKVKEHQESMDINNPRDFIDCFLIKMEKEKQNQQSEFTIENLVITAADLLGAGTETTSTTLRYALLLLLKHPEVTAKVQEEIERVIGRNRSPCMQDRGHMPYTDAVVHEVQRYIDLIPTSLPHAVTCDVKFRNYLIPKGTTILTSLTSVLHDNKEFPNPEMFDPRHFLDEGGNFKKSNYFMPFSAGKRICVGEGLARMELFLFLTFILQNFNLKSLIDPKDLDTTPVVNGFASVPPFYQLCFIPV

Row | Molecule | Bioactivation Percent (CYP2C19) [%] | Detoxification Percent (CYP2C19) [%] | Bioactivation Percent (CYP2C9) [%] | Detoxification Percent (CYP2C9) [%] | Bioactivation Percent (CYP3A4) [%] | Detoxification Percent (CYP3A4) [%] | other results
1 | Cc1c(Cl)cccc1Nc1ccccc1C(=O)O [TOL, tolfenamic acid] | 2.0 | 3.6 | 72.8 | 35.5 | 25.2 | 60.9 | 
2 | O=C(O)COC(=O)Cc1ccccc1Nc1c(Cl)cccc1Cl [ACE, aceclofenac] | 2.0 | 1.6 | 94.3 | 30.7 | 1.2 | 60.4 | Bioactivation Percent (CYP2C8): 2.5%; Detoxification Percent (CYP2C8): 7.3%
3 | Cc1ccc(Cl)c(Nc2ccccc2C(=O)O)c1Cl [MEC, meclofenamic acid] | 19.6 | 1.9 | 55.7 | 36.5 | 24.7 | 61.6 | 
4 | O=C(O)c1ccccc1Nc1cccc(C(F)(F)F)c1 [FLU, flufenamic acid] | 1.7 | 3.4 | 42.3 | 27.6 | 55.9 | 69.0 | 
5 | Cc1ccc(Nc2c(F)cccc2Cl)c(CC(=O)O)c1 [LUM, lumiracoxib] | 0.5 | 8.6 | 95.8 | 23.4 | 3.7 | 68.0 | 
6 | Cc1cccc(Nc2ccccc2C(=O)O)c1C [MEF, mefenamic acid] | 1.2 | 2.1 | 91.4 | 36.9 | 6.0 | 56.4 | Bioactivation Percent (CYP2C8): 1.4%; Detoxification Percent (CYP2C8): 4.6%
7 | B1 |  |  |  |  |  |  | Km ([1]; metabolite M2/M4a): 51.9 µM; kcat ([1]; metabolite M2/M4a): 5.6 (5.5–5.8) pmol/min/nmol protein; Km ([1]; metabolite M2/M4b): 75.6 µM; kcat ([1]; metabolite M2/M4b): 5.4 (5.2–5.5) pmol/min/nmol protein; Km ([2]; metabolite M2/M4, path 1, 2): 6.3 µM; kcat ([2]; metabolite M2/M4, path 1, 2): 1.4 (1.3–1.5) pmol/min/nmol protein; Km ([2]; metabolite M6, path 3): 9.4 µM; kcat ([2]; metabolite M6, path 3): 4.0 (3.9–4.1) pmol/min/nmol protein; Km ([2]; metabolite M9, path 4): 6.7 µM; kcat ([2]; metabolite M9, path 4): 1.7 (1.6–1.8) pmol/min/nmol protein; Km [3]: 160 (140–190) μM; kcat [3]: 2390 (2230–2560) pmol/min/nmol protein; Km [4]: 110 (96–130) μM; kcat [4]: 1740 (1640–1850) pmol/min/nmol protein
8 | B2 |  |  |  |  |  |  | Km ([5]; metabolite M2/M4a): 17.5 (13.4–22.7) μM; kcat ([5]; metabolite M2/M4a): 25.6 (24.2–27.0) pmol/min/nmol protein; Km ([5]; metabolite M2/M4b): 12.9 (10.1–16.5) μM; kcat ([5]; metabolite M2/M4b): 35.7 (34.0–37.4) pmol/min/nmol protein; Km [6]: 27.0 (22.4–32.3) μM; kcat [6]: 23.5 (22.5–24.5) pmol/min/nmol protein; Km ([7]; metabolite M2/M4a): 6.5 (5.2–8.0) μM; kcat ([7]; metabolite M2/M4a): 15.2 (14.6–15.9) pmol/min/nmol protein; Km ([7]; metabolite M2/M4b): 6.9 (5.8–8.8) μM; kcat ([7]; metabolite M2/M4b): 16.1 (15.6–16.7) pmol/min/nmol protein; Km ([8]; adduct Unk): 7.9 (5.8–10.7) μM; kcat ([8]; adduct Unk): 10.2 (9.7–10.9) pmol/min/nmol protein; Km ([8]; metabolite M9, path 4): 23.8 (19.4–28.9) μM; kcat ([8]; metabolite M9, path 4): 68.5 (65.0–72.2) pmol/min/nmol protein; Km [9]: 5.5 (4.3–7.1) μM; kcat [9]: 5.2 (5.0–5.4) pmol/min/nmol protein
